The source of these data is patent publication US20200172913A1, “PEPTIDES AND NANOPARTICLES FOR INTRACELLULAR DELIVERY OF VIRUS” (priority 2017, published 2020).

Like-named read-outs stand apart in the source and are kept apart here.

For assay [1], the system named is HepG2 cells. Nature of the assay: AAV-5-GFP transduction with CPPs, flow cytometry. The class given is cell-based, human. The conditions noted are these: 200 μM CPP. How it is done: (§1) In this example different AAV serotypes including AAV 1, AAV2, AAV5, AAV6, AAV8 and AAV9 were tested against human hepatocytes (HepG2) and human neuronal cells (HCN2) in the presence or in the absence of CPPs including ADGN-103a, ADGN-103b, ADGN-100, ADGN-109, ADGN-106, PEP-1, PEP-2, CADY, and TAT-HA2.
(§2) AAV-1, AAV-2, AAV-5, and AAV-6 viruses encoding green fluorescent protein were obtained from Cell Biolabs Inc and AAV-8 from Vector Biolabs. Stock solutions of virus were obtained at 1χ10^13 GC/ml in PBS/0.01% and diluted 50-fold to 2×10^11 GC/ml before use.
(§3) AAV-1, AAV-2, AAV-5, and AAV6 encoding green fluorescent protein were used at low MOI of 500 (1-2×10^7 PFU) and AAV-8 at MOI of 1000 (2-4×10^7 PFU). HepG2 and HCN2 cells (1 10^6 cells per well) were cultured in a 24 well plate culture dish format. For MOI of 1000, 5 μl of AAV virus diluted solutions were preincubated in PBS with increasing concentration of CPPs ranging from 0.1 to 200 μM for 30 min. For MOI of 500, 2.5 μl of AAV virus diluted solutions were preincubated in PBS with increasing concentration of CPPs ranging from 0.1 to 200 μM for 30 min. 200 μl of AAV or CPP/AAV complex solutions were added to cultured cells (1×10^6 cells per well). Cells are treated with either free AAV or CPP/AAV complexes for 4 h. and then the medium is replaced with fresh medium.
(§4) Viral mediated transgene expression was monitored by flow cytomety 2 days post-infection in HepG2 and Human neuronal HCN2. The percentage of GFP expressing cells were detected by flow cytometry and the increase of AAV infectivity was calculated based on the number of GFP-positive cells. Results are reported in FIGS. 5A-5D, 6A-6D, 7A-7D, 8A-8D, and 9A-9D.
In general terms: A flow cytometer gives signals particle by particle.

Assay [2] relates to HCN2 cells. As to the kind of experiment: AAV-5-GFP transduction with CPPs, flow cytometry. The conditions noted are these: 200 μM CPP. The class given is cell-based, human. The method, then: as §1, §2, §3, §4
Assay [3] concerns HepG2 cells. Nature of the assay: AAV-6-GFP transduction with CPPs, flow cytometry. The class given is cell-based, human. The conditions noted are these: 200 μM CPP. How it is done:
as §1, §2, §3, §4

The subject of assay [4] is HCN2 cells. Nature of the assay: AAV-6-GFP transduction with CPPs, flow cytometry. The class given is cell-based, human. How it is done:
as §1, §2, §3, §4

Assay [5] relates to HepG2 cells. The conditions noted are these: AAV-2, HepG2, Liu et al., cited from earlier work.
Assay [6] concerns HepG2 cells. As to the kind of experiment: AAV-1-GFP transduction with CPPs, flow cytometry. The conditions noted are these: 200 μM CPP, AAV-1 MOI of 500, HepG2; 5% in the absence of CPP. Type of assay: cell-based, human. The method, then:
as §1, §2, §3, §4

Assay [7] relates to HCN2 cells. As to the kind of experiment: AAV-1-GFP transduction with CPPs, flow cytometry. The class given is cell-based, human. The conditions noted are these: 200 μM CPP. The method, then:
as §1, §2, §3, §4

The test system of assay [8] is HepG2 cells. Nature of the assay: AAV-8-GFP transduction with CPPs, flow cytometry. The conditions noted are these: 200 μM CPP, AAV-8 MOI of 1000, HepG2; 5% in the absence of CPP. The class given is cell-based, human. The method, then:
as §1, §2, §3, §4

In assay [9] the test system is HCN2 cells. As to the kind of experiment: AAV-8-GFP transduction with CPPs, flow cytometry. The class given is cell-based, human. The conditions noted are these: 200 μM CPP, AAV-8 MOI of 1000, HCN2; 5% in the absence of CPP. How it is done: as §1, §2, §3, §4
Assay [10] concerns HepG2 cells. As to the kind of experiment: AAV-2 transfection of HepG2 cells with TAT-HA2 or LAH4 peptides (Liu et al., Molecular Therapy, 2014). The class given is cell-based, human. The conditions noted are these: 200 μM, GFP-positive cells.
In assay [11] the test system is HepG2 cells. As to the kind of experiment: AAV-2-GFP transduction with CPPs, flow cytometry. Type of assay: cell-based, human. The conditions noted are these: 200 μM CPP. How it is done:
as §1, §2, §3, §4

Assay [12] concerns HCN2 cells. As to the kind of experiment: AAV-2-GFP transduction with CPPs, flow cytometry. The class given is cell-based, human. The conditions noted are these: 200 μM CPP. How it is done: as §1, §2, §3, §4

Consider “CRRRQRRKKRGGDIMGEWGNEIFGAIAGFLG [TAT-HA2, reference compound]”, for which the “cells expressing GFP” value in [1] (AAV-5 MOI of 500, HepG2, 5% in the absence of CPP) was determined as 11%; in assay [2] (AAV-5 MOI of 500, HCN2, 5% in the absence of CPP), 10%; in assay [3] (AAV-6 MOI of 500, HepG2, 5% in the absence of CPP), 35%; in assay [4] (200 μM of CPP, AAV-6 MOI of 500, HCN2, 4% in the absence of CPP), 22%; in assay [6] it was 27%; in assay [7] (AAV-1 MOI of 500, HCN2, 5% in the absence of CPP), 22%. In addition, the “cells expressing GFP” value in assay [8] came out at 15%; in assay [9], 12%; in assay [11] (AAV-2 MOI of 500, HepG2, 4% in the absence of CPP), 23%; in assay [12] (AAV-2 MOI of 500, HCN2, 4% in the absence of CPP), 20%. For the same sequence, the “increase of AAV-5 efficiency” value was 3 fold in assay [1] (MOI of 500, HepG2) and 2 fold in assay [2] (MOI of 500, HCN2). Also, the “increase of AAV-6 efficiency” value is “about 10 fold” in assay [3] (MOI of 500, HepG2) and 3 fold in [4] (200 μM CPP, MOI of 500, HCN2). Besides, the GFP-positive cells entry in [5] (200 μM concentration of peptide) is on record as “about 25%”; in assay [5] (concentration of CPPs), 12%. The “increase of AAV-1 efficiency” value in [7] (MOI of 500, HCN2) amounted to 3 fold. The “fold lower than the results obtained with the ADGN peptides” value in assay [10] was 4 fold. Moreover, the “increase of AAV-2 efficiency” value in assay [11] (MOI of 500, HepG2) amounted to 5 fold; in [12] (MOI of 500, HCN2), 3 fold.
